Here are results for one molecule from ChEMBL document CHEMBL1136388, “EDTA bis-(methyl tyrosinate): a chelating peptoid peroxynitrite scavenger” (Bioorg Med Chem Lett, 2003).

The nature of this data set: pKa value was determined. It counts as physicochemical.

Each structure is given as a SMILES string.

In turn, `COC(=O)C(Cc1ccc(O)cc1)NC(=O)CN(CCN(CC(=O)O)CC(=O)NC(Cc1ccc(O)cc1)C(=O)OC)CC(=O)O` (stereo unspecified) showed a pKa of 6.8.

One may read the pKa as the negative logarithm of the acid dissociation constant. A higher pKa goes with a weaker acid or stronger base.
